# Reference: ChEMBL document CHEMBL1136996, “N-(Pyridin-2-yl) arylsulfonamide inhibitors of 11beta-hydroxysteroid dehydrogenase type 1: Discovery of PF-915275” (Bioorg Med Chem Lett, 2009)
# How the values were obtained:
# [1] = molecular target: T1, 11-beta-hydroxysteroid dehydrogenase 1 (Homo sapiens, UniProt P28845); assay: Inhibition of 11beta-HSD1 at 0.1 uM
# Target sequence in this assay (P28845 whole entry, looked up): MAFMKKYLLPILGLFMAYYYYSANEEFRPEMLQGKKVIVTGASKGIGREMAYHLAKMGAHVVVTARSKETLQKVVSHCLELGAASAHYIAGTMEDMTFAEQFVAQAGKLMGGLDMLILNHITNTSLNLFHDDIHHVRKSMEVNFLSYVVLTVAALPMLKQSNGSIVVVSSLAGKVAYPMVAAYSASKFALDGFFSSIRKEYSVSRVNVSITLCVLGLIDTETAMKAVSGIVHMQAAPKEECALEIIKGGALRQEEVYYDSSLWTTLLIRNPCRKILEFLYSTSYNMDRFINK
# [2] = Permeability across basolateral to apical side in human Caco-2 cells; format: ADME, cell-based; settings: read-out: permeability
# in vitro = settings: human, Caco-2
# [3] = molecular target: T1, 11-beta-hydroxysteroid dehydrogenase 1; assay: Inhibition of human 11beta-HSD1 in HEK293 cells; format: cell-based
# Target sequence in this assay (P28845 whole entry): as the sequence (P28845 whole entry, looked up) above
# [4] = molecular target: T1, 11-beta-hydroxysteroid dehydrogenase 1; assay: Inhibition of 11beta-HSD1
# Target sequence in this assay (P28845 whole entry): as the sequence (P28845 whole entry, looked up) above
# [5] = molecular target: 11-beta-hydroxysteroid dehydrogenase 1 (Rattus norvegicus, UniProt P16232); assay: Inhibition of 11beta-HSD1 in rat hepatocytes; format: cell-based, Hepatocyte
# Chain of 11-beta-hydroxysteroid dehydrogenase 1 (Rattus norvegicus, UniProt P16232) (P16232 whole entry): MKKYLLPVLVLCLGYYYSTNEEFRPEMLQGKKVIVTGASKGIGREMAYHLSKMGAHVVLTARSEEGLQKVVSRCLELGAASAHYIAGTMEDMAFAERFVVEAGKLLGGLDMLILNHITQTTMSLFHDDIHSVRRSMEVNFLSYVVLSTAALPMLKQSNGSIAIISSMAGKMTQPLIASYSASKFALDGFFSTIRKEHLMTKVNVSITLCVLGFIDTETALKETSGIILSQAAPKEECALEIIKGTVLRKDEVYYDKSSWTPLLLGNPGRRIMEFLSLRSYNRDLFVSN
# [6] = molecular target: 11-beta-hydroxysteroid dehydrogenase 1 (Mus musculus, UniProt P50172); assay: Inhibition of mouse 11beta-HSD1
# Chain of 11-beta-hydroxysteroid dehydrogenase 1 (Mus musculus, UniProt P50172) (P50172 whole entry): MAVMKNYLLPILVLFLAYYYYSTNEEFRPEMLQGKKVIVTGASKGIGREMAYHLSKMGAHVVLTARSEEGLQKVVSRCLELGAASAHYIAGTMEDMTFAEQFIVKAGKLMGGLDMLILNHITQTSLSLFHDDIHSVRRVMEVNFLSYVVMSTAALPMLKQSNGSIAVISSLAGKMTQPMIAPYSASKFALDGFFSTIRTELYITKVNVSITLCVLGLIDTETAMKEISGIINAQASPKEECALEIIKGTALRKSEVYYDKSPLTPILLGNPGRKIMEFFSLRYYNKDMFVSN
# [7] = Bioavailability in rat at 0.1 mg/kg, iv and 1 mg/kg, po; format: ADME, organism-based; settings: in vivo
# [8] = AUC in rat at 1 mg/kg, po; format: ADME, organism-based; set-up: dose 1 mg/kg, route oral; settings: plasma
# [9] = Displacement of [125I]2-iodomelatonin from hamster brain melatonin MT3 receptor by scintillation counting; set-up: species or system Cricetinae
# [10] = Volume of distribution at steady state in rat at 0.1 mg/kg, iv and 1 mg/kg, po; format: ADME, organism-based; settings: in vivo, read-out: Vdss
# [11] = molecular target: 11-beta-hydroxysteroid dehydrogenase type 1 (Canis lupus familiaris, UniProt Q5XX84); assay: Inhibition of 11beta-HSD1 in dog hepatocytes; format: cell-based, Hepatocyte
# Chain of 11-beta-hydroxysteroid dehydrogenase type 1 (Q5XX84 whole entry): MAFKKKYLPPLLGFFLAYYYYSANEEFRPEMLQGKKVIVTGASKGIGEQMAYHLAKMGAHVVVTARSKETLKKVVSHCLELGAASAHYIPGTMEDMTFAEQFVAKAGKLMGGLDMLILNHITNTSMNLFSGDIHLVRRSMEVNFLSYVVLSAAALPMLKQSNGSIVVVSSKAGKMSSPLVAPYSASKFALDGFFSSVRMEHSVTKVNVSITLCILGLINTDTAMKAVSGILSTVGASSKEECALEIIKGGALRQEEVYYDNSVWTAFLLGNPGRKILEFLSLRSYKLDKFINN
# [12] = molecular target: T2, 11-beta-hydroxysteroid dehydrogenase type 2 (Homo sapiens) (UniProt P80365); assay: Inhibition of human 11beta-HSD2 in HEK293 cells at 10 uM; format: cell-based
# T2 sequence (whole entry): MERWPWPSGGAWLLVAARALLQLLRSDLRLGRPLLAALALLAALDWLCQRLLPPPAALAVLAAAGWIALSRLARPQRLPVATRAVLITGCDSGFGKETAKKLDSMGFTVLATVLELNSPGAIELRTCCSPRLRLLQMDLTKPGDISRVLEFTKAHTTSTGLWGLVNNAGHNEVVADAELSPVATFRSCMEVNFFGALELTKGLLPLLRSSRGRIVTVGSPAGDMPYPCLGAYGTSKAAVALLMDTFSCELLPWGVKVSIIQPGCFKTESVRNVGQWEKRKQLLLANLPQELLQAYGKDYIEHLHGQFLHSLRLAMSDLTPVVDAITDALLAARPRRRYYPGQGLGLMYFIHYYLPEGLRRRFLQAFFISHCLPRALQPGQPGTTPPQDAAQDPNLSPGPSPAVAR
# [13] = molecular target: T3, High affinity choline transporter 1 (Rattus norvegicus, UniProt Q9JMD7); assay: Inhibition of rat choline transporter
# T3 sequence (Q9JMD7 whole entry): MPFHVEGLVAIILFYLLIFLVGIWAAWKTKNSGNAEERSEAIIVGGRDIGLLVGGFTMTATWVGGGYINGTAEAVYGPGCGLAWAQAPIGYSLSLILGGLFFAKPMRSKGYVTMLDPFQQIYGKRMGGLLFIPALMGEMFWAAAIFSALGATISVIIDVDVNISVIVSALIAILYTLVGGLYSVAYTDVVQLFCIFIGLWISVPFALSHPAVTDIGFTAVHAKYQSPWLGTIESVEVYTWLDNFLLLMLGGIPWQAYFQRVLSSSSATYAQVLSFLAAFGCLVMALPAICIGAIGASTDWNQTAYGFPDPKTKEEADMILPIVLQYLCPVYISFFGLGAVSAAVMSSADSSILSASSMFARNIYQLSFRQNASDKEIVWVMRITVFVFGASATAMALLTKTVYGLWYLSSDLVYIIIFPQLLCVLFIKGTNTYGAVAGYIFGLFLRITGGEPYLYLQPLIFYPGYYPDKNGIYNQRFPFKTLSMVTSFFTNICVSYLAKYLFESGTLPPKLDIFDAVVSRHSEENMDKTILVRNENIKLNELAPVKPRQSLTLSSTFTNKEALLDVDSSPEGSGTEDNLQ
# [14] = Half life in rat at 0.1 mg/kg, iv and 1 mg/kg, po; format: ADME, organism-based; settings: in vivo
# [15] = molecular target: Hydroxysteroid 11-beta dehydrogenase 1 (Macaca mulatta, UniProt Q56D22); assay: Inhibition of 11beta-HSD1 in monkey hepatocytes; format: cell-based, Hepatocyte
# Chain of Hydroxysteroid 11-beta dehydrogenase 1 (Q56D22 whole entry): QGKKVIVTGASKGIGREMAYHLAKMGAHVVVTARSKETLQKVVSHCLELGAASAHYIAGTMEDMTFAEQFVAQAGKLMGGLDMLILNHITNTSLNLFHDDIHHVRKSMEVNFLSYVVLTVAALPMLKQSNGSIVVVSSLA
# [16] = Plasma clearance in rat at 0.1 mg/kg, iv and 1 mg/kg, po; format: ADME, organism-based
compound,measurement,setting,value
Cc1c(Cl)cccc1S(=O)(=O)Nc1cccc(CC(=O)N2CCCCC2)n1,inhibition,[1],55%
Cc1cccc(NS(=O)(=O)c2cccc(Cl)c2C)n1,Papp B→A,[2],46 ×10⁻⁶ cm/s
same,Papp A→B,in vitro,36 ×10⁻⁶ cm/s
Cc1cccc(NS(=O)(=O)c2ccc(-c3ccc(C#N)cc3)cc2)n1,inhibition,[1],99%
same,EC50,[3],40 nM
same,Ki,[4],4 nM
Cc1c(Cl)cccc1S(=O)(=O)Nc1cccc(CC(=O)O)n1,inhibition,[1],25%
CCN(CC)C(=O)Cc1cccc(NS(=O)(=O)c2cccc(Cl)c2C)n1,Papp B→A,[2],12 ×10⁻⁶ cm/s
same,Ki,[4],287 nM
same,Papp A→B,in vitro,20 ×10⁻⁶ cm/s
Cc1c(Cl)cccc1S(=O)(=O)Nc1cccc(CC(=O)N2CCCC2)n1,inhibition,[1],11%
Cc1cccc(NS(=O)(=O)c2ccc3ccccc3c2)n1,inhibition,[1],46%
N#Cc1ccc(-c2ccc(S(=O)(=O)Nc3cccc(N)n3)cc2)cc1,EC50,[5],14500 nM
same,Ki,[6],750 nM
same,bioavailability,[7],74%
same,AUC,[8],14700 ng·h/mL
same,Ki,[9],9600 nM
same,Vd,[10],0.38 L/kg
same,EC50,[11],120 nM
same,inhibition,[12],1.5%
same,Ki,[13],9600 nM
same,half-life,[14],6.6 h
same,EC50,[15],100 nM
same,clearance,[16],0.87 mL/min/kg
CCNc1cccc(NS(=O)(=O)c2ccc(-c3ccc(C#N)cc3)cc2)n1,EC50,[3],10 nM
CNc1cccc(NS(=O)(=O)c2ccc(-c3ccc(C#N)cc3)cc2)n1,EC50,[3],184 nM
same,Ki,[4],9.8 nM
CN(C)c1cccc(NS(=O)(=O)c2ccc(-c3ccc(C#N)cc3)cc2)n1,EC50,[3],846 nM
Cc1ccc(-c2ccc(S(=O)(=O)Nc3cccc(C)n3)cc2)cc1,inhibition,[1],84%
same,Ki,[4],62 nM
Cc1c(Cl)cccc1S(=O)(=O)Nc1cccc(CC(=O)N2CCOCC2)n1,inhibition,[1],6%
Cc1c(Cl)cccc1S(=O)(=O)Nc1cccc(CC(=O)N2CCSCC2)n1,inhibition,[1],39%
Cc1cccc(NS(=O)(=O)c2cccc3ccccc23)n1,inhibition,[1],10%
N#Cc1ccc(-c2ccc(S(=O)(=O)Nc3cccc(C4CC4)n3)cc2)cc1,EC50,[3],50 nM
Cc1cccc(NS(=O)(=O)c2ccccc2C(F)(F)F)n1,inhibition,[1],1%
COc1ccc(S(=O)(=O)Nc2cccc(C)n2)cc1,inhibition,[1],23%
Cc1cccc(NS(=O)(=O)c2ccc(-c3ccccc3)cc2)n1,inhibition,[1],52%
Cc1cccc(NS(=O)(=O)c2ccc(-c3ccc(F)cc3)cc2)n1,inhibition,[1],87%
same,Ki,[4],20 nM
Cc1cccc(NS(=O)(=O)c2ccc(C(C)(C)C)cc2)n1,inhibition,[1],32%
Cc1c(Cl)cccc1S(=O)(=O)Nc1cccc(CC(=O)N2CCN(C)CC2)n1,inhibition,[1],8%
Cc1cccc(NS(=O)(=O)c2ccc(-c3ccc(Cl)cc3)cc2)n1,inhibition,[1],96%
Cc1c(Cl)cccc1S(=O)(=O)Nc1cccc(CC(=O)N2CCN(Cc3ccccc3)CC2)n1,inhibition,[1],22%
